From patent US20130184272A1, “DIABETES THERAPEUTIC AGENT” (TAKEDA PHARMACEUTICAL COMPANY LIMITED, priority 2010, published 2013)

How the values were obtained:
C2C12 cell = assay: Sugar metabolism promoting activity in muscle cell (lactic acid production); type: cell-based, Mouse; settings: Mus musculus, 48 h; compound 1 μM, 2 days, C2C12 myotubes; without drug = 100%; read-out: lactic acid production promoting action (%)
Method: • (1) In the same manner as in Example 1, C2C12 cell was cultured in a growth medium. After reaching subconfluence of not less than 90%, the medium was exchanged with a differentiation medium and the cells were cultured for about 7 days while exchanging the medium every 2 or 3 days until the cells differentiated to form a myotube. • (2) After confirmation of myotube formation under a microscope, the test compound (1 μM) was added to a differentiation medium and cultured for 2 days. The cells were washed with Krebs-Ringer HEPES phosphate buffer (10 mM HEPES, pH 7.4, 131 mM NaCl, 4.7 mM KCl, 2.5 mM CaCl2—2H2O, 1.2 mM MgSO4—7H2O, 1.2 mM KH2PO4), the medium was exchanged with Krebs-Ringer HEPES phosphate buffer added with 5 mM glucose, 0.2% fatty acid-free bovine serum albumin, and cultured at 37° C. for 4 hr. • (3) The lactic acid concentration of the culture supernatant was measured using Detarminer LA kit (Kyowa Medex Co., Ltd.).
The numerical values in Table 2 show the concentration of the compound addition group with the concentration of lactic acid without addition of a drug as 100%.

Female KKA^y mice = assay: Anti-diabetes action and dyslipidemia improving effect in KKA^y mouse; type: in vivo; settings: 2 weeks, control group = 100
Method: Female KKA^y mice (12-week-old, CLEA Japan, Inc.) were bred while allowing free ingestion of both feed and water. The mice were bred for acclimation with powder CE-2 (CLEA Japan, Inc.) from 2 weeks before administration of the compound. The body weight and plasma markers were measured and, at 14 weeks of age, they were divided such that the measured values were uniform with those of the control group. The compound of Reference Example 1, 2, 7, 8, 9 or 22 was administered for 2 weeks in a mixed feed (0.01-0.0001%). On the last day, plasma levels of glucose, insulin, total cholesterol and neutral lipid were measured.

[1] = tested on: succinic acid dehydrogenase activity of mitochondria; assay: Succinic acid dehydrogenase activity in muscle cell; type: cell-based, Mouse; settings: for succinic acid dehydrogenase activity: two days, control group 100
Method: (§1) • (1) In the same manner as in Example 1, C2C12 cells were cultured in a growth medium to not less than 90% confluence. • (2) The medium was exchanged with a differentiation medium, and the cells were cultured until observation of myotube formation under a microscope. • (3) The compounds of Reference Example 1 and Reference Example 7 were added, and the cells were cultured for two days. • (4) ATP content was measured using Cell Titer-Glo™ Luminescence cell viable assay (Promega) and succinic acid dehydrogenase activity of mitochondria was measured using Cell Counting Kit-8 (Dojin). The data of Table 17 show mean±standard deviation at n=3-4 (n is the number of samples).

C2C12 cells [2] = assay: Sugar uptake promoting activity in muscle cell (2DG uptake); type: cell-based, Mouse; settings: for 2DG uptake (%): control group (DMSO) = 100%
Method: • (1) In the same manner as in Example 1, C2C12 cells were cultured in a growth medium to not less than 90% confluence. • (2) The medium was exchanged with a differentiation medium, and the cells were cultured until observation of myotube formation under a microscope. • (3) The compounds of Reference Example 1 and Reference Example 7 were added, and the cells were cultured overnight. • (4) The cells were washed with krebs-ringer HEPES phosphate buffer added with 1% bovine serum albumin, cultured for 30 min in this buffer, 2-deoxyglucose (2DG) (0.1 mM, 0.8 μCi/250 μL) was added and the cells were cultured at 37° C. for 75 min. • (5) The cells were washed 4 times with PBS, MicroScint-20 (125 μL/well, PerkinElmer) was added and the radioactivity was measured by a scintillation counter. DMSO (dimethyl sulfoxide) alone was added to the control group. The numerical values of 2DG uptake in Table 10 are relative values to the control group as 100%.
The data in Table 10 show mean±standard deviation at n=6 (n is the number of samples).

C2C12 cells [3] = assay: ATP content in muscle cell; type: cell-based, Mouse; settings: for ATP content: two days, control group 100
Method: as §1

[4] = tested on: Mouse-derived myoblast line C2C12 cell; assay: Cell differentiation promoting activity in myoblast (creatine kinase activity); type: cell-based; settings: Mus musculus, C2C12, 48 h; compound at 0.01 μM (**); 2 days; without compound = 100%; read-out: creatine kinase activating action (%)
Method: • (1) Mouse-derived myoblast line C2C12 cell (Dainippon Pharmaceutical Co., Ltd.) was subcultured in a high glucose Eagle's modified Dulbecco's medium (GIBCO) added with 10% calf fetal bovine serum (GIBCO), 100 unit/mL penicillin and 100 μg/mL streptomycin (hereinafter to be referred to as a growth medium), plated at 5000 cells/cm^2 and cultured at 37° C., under 5% CO2. • (2) When the cells reached subconfluence of not less than 90%, the medium was exchanged with high glucose Eagle's modified Dulbecco's medium (GIBCO) added with (i) 2% horse serum (GIBCO) and (ii) penicillin, streptomycin and a test compound (hereinafter to be referred to as a differentiation medium) and the cells were cultured for 2 days. To the control group was added DMSO solution instead of the test compound. • (3) The cells were washed with PBS, 0.5% NP-40 solution was added, and the cells were lysed by freeze-thawing. The cell extract was centrifuged and the creatine kinase activity in the supernatant was measured as an index of muscle differentiation. The creatine kinase activity was measured using CPKII Test Wako (Wako Pure Chemical Industries, Ltd.) according to the manual of the kit.
The numerical values in Table 1 show creatine kinase activity of the compound addition group when the creatine kinase activity without addition of the compound is 100%, and * means measurement with addition of the compound at 10 μM, ** at 0.01 μM, and others at 1 μM.

SMILES: Cn1ncc2c1-c1c(Oc3cccnc3)sc(C(N)=O)c1CC2 [Ref. Ex. 7, 1-methyl-8-(pyridin-3-yloxy)-4,5-dihydro-1H-thieno[3,4-g]indazole-6-carboxamide]
- activity at 1 µM (C2C12 cell): 254%
- plasma glucose (%) (Female KKA^y mice; mixed feed dose 0.01 %): 40.3 ± 4.5%
- plasma insulin (%) (Female KKA^y mice; mixed feed dose 0.01 %): 2.9 ± 1.7%
- plasma neutral lipid (%) (Female KKA^y mice; mixed feed dose 0.01 %): 33.9 ± 8.6%
- plasma total cholesterol (%) (Female KKA^y mice; mixed feed dose 0.01 %): 64.8 ± 12.0%
- succinic acid dehydrogenase activity (in words) [1]: increased
- succinic acid dehydrogenase activity ([1]; compound 1 nM): 111 ± 3
- succinic acid dehydrogenase activity ([1]; compound 10 nM): 120 ± 4
- succinic acid dehydrogenase activity ([1]; compound 100 nM): 131 ± 7
- sugar uptake of C2C12 cell differentiated into muscle cell (in words) (C2C12 cells [2]): promoted
- 2DG uptake (%) (C2C12 cells [2]; compound 0.1 nM overnight): 69%
- 2DG uptake (%) (C2C12 cells [2]; compound 1 nM overnight): 100%
- 2DG uptake (%) (C2C12 cells [2]; compound 10 nM overnight): 137%
- 2DG uptake (%) (C2C12 cells [2]; compound 100 nM overnight): 181%
- ATP content of muscle cells (in words) (C2C12 cells [3]): did not decrease
- ATP content (C2C12 cells [3]; compound 1 nM): 106 ± 2
- ATP content (C2C12 cells [3]; compound 10 nM): 111 ± 3
- ATP content (C2C12 cells [3]; compound 100 nM): 103 ± 4
- activity at 0.01 µM [4]: 183%

SMILES: Cc1ncccc1Oc1sc(C(N)=O)c2c1-c1c(cnn1C)CC2 [Ref. Ex. 1, 1-methyl-8-[(2-methylpyridin-3-yl)oxy]-4,5-dihydro-1H-thieno[3,4-g]indazole-6-carboxamide]
- activity at 1 µM (C2C12 cell): 247%
- plasma glucose (%) (Female KKA^y mice; mixed feed dose 0.0001 %): 53.2 ± 19.1%
- plasma insulin (%) (Female KKA^y mice; mixed feed dose 0.0001 %): 27.3 ± 19.5%
- plasma neutral lipid (%) (Female KKA^y mice; mixed feed dose 0.0001 %): 38.9 ± 11.0%
- plasma total cholesterol (%) (Female KKA^y mice; mixed feed dose 0.0001 %): 61.6 ± 10.8%
- succinic acid dehydrogenase activity (in words) [1]: increased
- succinic acid dehydrogenase activity ([1]; compound 0.01 nM): 98 ± 10
- succinic acid dehydrogenase activity ([1]; compound 0.1 nM): 113 ± 5
- succinic acid dehydrogenase activity ([1]; compound 1 nM): 124 ± 3
- sugar uptake of C2C12 cell differentiated into muscle cell (in words) (C2C12 cells [2]): promoted
- 2DG uptake (%) (C2C12 cells [2]; compound 0.1 nM overnight): 89%
- 2DG uptake (%) (C2C12 cells [2]; compound 1 nM overnight): 150%
- 2DG uptake (%) (C2C12 cells [2]; compound 10 nM overnight): 166%
- 2DG uptake (%) (C2C12 cells [2]; compound 100 nM overnight): 187%
- ATP content of muscle cells (in words) (C2C12 cells [3]): did not decrease
- ATP content (C2C12 cells [3]; compound 0.01 nM): 108 ± 1
- ATP content (C2C12 cells [3]; compound 0.1 nM): 107 ± 0
- ATP content (C2C12 cells [3]; compound 1 nM): 112 ± 1
- activity at 0.01 µM [4]: 175%
